10 compounds from patent publication US20070088043A1, “Novel HDAC inhibitors” (ORCHID RESEARCH LABORATORIES LIMITED., priority 2005, published 2007) can be followed below.

The test system of test [1] is NCIH 460 cells. Put plainly: Anti-cancer screen (MTT), NCIH460. The note with it: Homo sapiens, NCI-H460, NCIH460 cells, 48 hours, MTT; for GI50: concentration to decrease % growth by 50%; for IC100: concentration to decrease % growth by 100%, read-out: NCIH460 TGI; for LC50: concentration to decrease % growth by 150%. Type of test: cell-based. How it is done:
(§1) Experimental drugs are screened for anti-cancer activity in three cell lines for their GI50, TGI and LC50 values (using five concentrations for each compound). The cell lines are maintained in DMEM containing 10% fetal bovine serum. 96 well micro titer plates are inoculated with cells in 100 μL for 24 h at 37° C., 5% CO2, 95% air and 100% relative humidity. 5000 HCT 116 cells/well, 5000 NCIH 460 cells/well and 5000 U251 cells/well are plated. A separate plate with these cell lines is also inoculated to determine cell viability before the addition of the compounds (T0).
(§2) Following 24-hour incubation, experimental drugs are added to the 96 well plates. Each plate contains one of the above cell lines and the following in triplicate: five different concentrations (0.01, 0.1, 1, 10 and 100 μM) of four different compounds, appropriate dilutions of a cytotoxic standard and control (untreated) wells. Compounds are dissolved in DMSO to make 20 mM stock solutions on the day of drug addition and frozen at −20° C. Serial dilutions of these 20 mM stock solutions are made in complete growth medium such that 100 μL of these drug solutions in medium, of final concentrations equaling 0.01, 0.1, 1, 10 and 100 μM can be added to the cells in triplicate. Standard drugs whose anti-cancer activity has been well documented and which are regularly used are doxorubicin and SAHA.
(§3) For To measurement, 24 hours after seeding the cells, 10 μL of 3-(4,5-Dimethyl-2-thiazolyl)-2,5-diphenyl-2H-tetrazolium (MTT) solution per well is added and incubation carried out for 3 hours at 37° C., 5% CO2, 95% air and 100% relative humidity, protected from light. Cells incubated with compounds for 48 hours are treated similarly except with the addition of 20 μL MTT solution per well and a subsequent incubation under the same conditions. After 3 hours of MTT incubation, well contents are aspirated carefully followed by addition of 150 μL DMSO per well. Plates are agitated to ensure solution of the formazan crystals in DMSO and absorbance read at 570 nm. […]

The test system of test [2] is HCT 116 cells. The test can be described thus: Anti-cancer screen (MTT), HCT116. The format is cell-based. Conditions: Homo sapiens, HCT-116, HCT116 cells, 48 hours, MTT; for GI50: concentration to decrease % growth by 50%; for IC100: concentration to decrease % growth by 100%, read-out: HCT116 TGI; for LC50: concentration to decrease % growth by 150%. How it is done: as §1, §2, §3

Test [3] concerns MDAMB231/U251. The test can be described thus: Anti-cancer screen (MTT), MDAMB231/U251. The note with it: MDAMB231/U251 cells, 48 hours; for GI50: concentration to decrease % growth by 50%; for IC100: concentration to decrease % growth by 100%, read-out: MDAMB231/U251 TGI; for LC50: concentration to decrease % growth by 150%. The format is cell-based. How it is done: as §1, §2, §3

Test [4] has as its system NCIH460, HCT116, MDAMB231/U251. The test can be described thus: Anti-cancer screen, mean GI50 over the cell lines. The format is cell-based. Conditions: in µM. How it is done:
as §1, §2, §3

For test [5], the system named is HDAC (Mouse Liver Extract). Put plainly: Histone Deacetylase (HDAC) Inhibition Assay using Boc-Lys (Ac)-AMC Substrate. The note with it: mouse liver enzyme, NA = No Activity; for HDAC Inhibition 1 μM / HDAC Inhibition 10 μM: in % (unit assumed). Type of test: biochemical. From the text:
HDAC Activitv Screening: Histone Deacetylase (HDAC) Inhibition Assay using Boc-Lys (Ac)-AMC Substrate:
Inhibition of HDAC has been implicated to modulate transcription and to induce apoptosis or differentiation in cancer cells. The fluorometric assay provides a fast and fluorescence based method that eliminates radioactivity, extractions or chromatography, as used in traditional assays. The assay based on two steps. First, the HDAC fluorometric substrate, which comprises an acetylated lysine side chain, is incubated with a sample containing HDAC activity (Mouse Liver Extract). Deacetylation of the substrate sensitizes the substrate, in the second step; treatment with the Trypsin stop solution produces a fluorophore that can be easily analyzed using fluorescence plate reader.
Assay was done in 96 well black microplate and total volume of the assay is 100 ul. Mouse liver enzyme is diluted 1:6 with HDAC buffer. Enzyme cocktail made of 10 ul of diluted enzyme and 30 ul of HDAC buffer. 40 ul of enzyme cocktail dispensed into each well. 10 ul of different concentrations of inhibitor added in to each well, except enzyme control well. Preincubated the plate at 30° C. for 5 minutes. The HDAC reaction is started by adding 50 ul of HDAC substrate (Boc-Lys (Ac)-AMC Substrate) solution. Incubated the plate at 30° C. for 30 minutes. Adding 100 ul of Trypsin stop solution stops the reaction. The plate is incubated again at 30° C. for 20-30 minutes. The release of AMC is monitored by measuring the fluorescence at excitation wavelength of 365 or 360 nm and emission wavelength of 440 or 460 nm. Buffer and substrate alone kept for blank subtraction. (Dennis Wegener et al, Anal. Biochem, 321, 2003, 202-208).

`CC(=O)SCCCCCC(=O)N1CCN(CC(=O)Nc2ccccc2)CC1` [Example 18, 2-[4-(6-Thioacetylhexanoyl)piperazin-1-yl]-N-(phenyl-2-yl)acetamide]: in test [1], the GI50 was determined as 30 µM, the IC100 was more than 100 µM and the LC50 was more than 100 µM. For the same compound, in test [2], the GI50 is 63 µM, the IC100 is more than 100 µM and the LC50 is more than 100 µM. Further, in test [3], the GI50 is more than 100 µM, the IC100 was more than 100 µM and the LC50 was more than 100 µM. Further, in test [4], the “Mean GI50” value came out at 46.50. Moreover, in test [5], the “HDAC Inhibition 1 μM” value was determined as 65.15 and the “HDAC Inhibition 10 μM” value is 94.50.

Regarding `O=C(CN1CCN(C(=O)CCCCCNO)CC1)Nc1nc2ccccc2s1` [Example 26], in test [1], the GI50 came to 9.5 µM, the IC100 came to 92 µM and the LC50 was more than 100 µM. Also, in test [2], halving of growth (GI50) required 8.6 µM, the IC100 was more than 100 µM and the LC50 was more than 100 µM. In addition, in test [3], the GI50 stood at 27 µM, the IC100 amounted to 85 µM and the LC50 is more than 100 µM. In test [4], the “Mean GI50” value is listed as 15. Further, the “HDAC Inhibition 10 μM” value in test [5] worked out at 4.5.

Regarding `Cc1ccc2nc(NC(=O)CN3CCN(C(=O)CCCCCS)CC3)sc2c1` [Example 25, N-6-methyl-1,3-benzothiazol-2-yl-2-[4-(6-mercaptohexanoyl)piperazin-1-yl]acetamide], in test [1], the GI50 came out at 9 µM, the IC100 is more than 100 µM and the LC50 is more than 100 µM. Further, in test [2], the GI50 came out at 3.5 µM, the IC100 is more than 100 µM and the LC50 was more than 100 µM. Besides, in test [3], the GI50 worked out at 0.07 µM, the IC100 was determined as 0.8 µM and the median lethal concentration (LC50) was more than 100 µM. For the same compound, in test [4], the “Mean GI50” value is given as 4.2. In test [5], the “HDAC Inhibition 10 μM” value is given as 3.6.

As to `COC(=O)[C@H](CO)NC(=O)CCCCCCC(=O)N1CCN(CC(=O)Nc2nc3ccc(C)cc3s2)CC1` [Example 30], in test [1], the GI50 stood at 42.5 µM, the IC100 turned out to be 80.5 µM and the LC50 is more than 100 µM. In addition, in test [2], the GI50 is 8 µM, the IC100 is 51 µM and the LC50 was 79 µM. Also, in test [3], it took 35 µM to inhibit growth by half (GI50), the IC100 worked out at 56 µM and the LC50 turned out to be 82 µM. In addition, the “Mean GI50” value in test [4] stood at 28.50. Also, the “HDAC Inhibition 10 μM” value in test [5] is recorded as 4.65.

For `CC(=O)SCCCCCC(=O)N1CCN(CC(=O)Nc2nc3ccccc3s2)CC1` [Example 6, 2-[4-(6-Thioacetylhexanoyl)piperazin-1-yl]-N-(1,3-benzothiazol-2-yl)acetamide], in test [1], the GI50 was 0.8 µM, the IC100 came out at 53 µM and the LC50 is more than 100 µM. Besides, in test [2], it took 4.5 µM to inhibit growth by half (GI50), the IC100 was 42 µM and the median lethal concentration (LC50) was more than 100 µM. Moreover, in test [3], the GI50 was 0.01 µM, the IC100 was 0.4 µM and the LC50 is more than 100 µM. In addition, the “Mean GI50” value in test [4] turned out to be 2.00. Besides, in test [5], the “HDAC Inhibition 1 μM” value is reported as 63.40, the “HDAC Inhibition 10 μM” value was found to be 83.30 and 62 nM corresponded to half-maximal inhibition (IC50).

Consider `CC(=O)SCCCCCC(=O)N1CCN(CC(=O)Nc2cccc(F)c2)CC1` [Example 22, 2-[4-(6-Thioacetylhexanoyl)piperazin-1-yl]-N-(6-fluorophenyl-2-yl)acetamide], for which, in test [1], the GI50 was more than 100 µM, the IC100 is more than 100 µM and the LC50 was more than 100 µM. Further, in test [2], the GI50 came out at 67 µM, the IC100 is more than 100 µM and the LC50 was more than 100 µM. For the same compound, in test [3], the GI50 is more than 100 µM, the IC100 is more than 100 µM and the LC50 is more than 100 µM. Further, in test [4], the “Mean GI50” value is on record as more than 100. Also, in test [5], the “HDAC Inhibition 1 μM” value stood at 6.0 and the “HDAC Inhibition 10 μM” value is given as 50.0.

Regarding `CC(=O)SCCCCC(=O)N1CCN(CC(=O)Nc2cccc(F)c2)CC1` [Example 23, 2-[4-(5-Thioacetylpentanoyl)piperazin-1-yl]-N-(6-fluorophenyl-2-yl)acetamide], in test [1], the GI50 was more than 100 µM, the IC100 was more than 100 µM and the LC50 was more than 100 µM. Moreover, in test [2], the GI50 came to 63 µM, the IC100 was more than 100 µM and the LC50 is more than 100 µM. In addition, in test [3], the GI50 stood at 38 µM, the IC100 stood at 78 µM and the LC50 is more than 100 µM. Also, the “Mean GI50” value in test [4] is more than 100. In test [5], the “HDAC Inhibition 1 μM” value was determined as 47.2, the “HDAC Inhibition 10 μM” value came out at 81.7 and the IC50 came to 4800 nM.

On to `O=C(CCCCCCC(=O)N1CCN(CC(=O)Nc2nccs2)CC1)NO` [Example 34, 8-{4-[2-(1,3-Thiazol-2-ylamino)-2-oxoethyl]piperazin-1-yl}-N-hydroxy-8-oxo octanamide], for which, in test [1], the GI50 is more than 100 µM, the IC100 is more than 100 µM and the LC50 is more than 100 µM. Moreover, in test [2], it took 50 µM to inhibit growth by half (GI50), the IC100 is more than 100 µM and the median lethal concentration (LC50) was more than 100 µM. In addition, in test [3], halving of growth (GI50) required 6 µM, the IC100 is 74 µM and the LC50 was more than 100 µM. Moreover, the “Mean GI50” value in test [4] was found to be 28. Also, in test [5], the “HDAC Inhibition 1 μM” value is 45.65 and the “HDAC Inhibition 10 μM” value amounted to 89.86.

On to `CC(=O)N(OCc1ccccc1)C(=O)CCCCCCC(=O)N1CCN(CC(=O)Nc2nc3c(C)cccc3s2)CC1` [Example 41], for which, in test [1], halving of growth (GI50) required 26 µM, the IC100 worked out at 100 µM and the LC50 is more than 100 µM. Also, in test [2], growth was halved (GI50) at 4.5 µM, the IC100 worked out at 53 µM and the LC50 was more than 100 µM. Further, in test [3], the GI50 is 0.1 µM, the IC100 turned out to be 6.2 µM and the LC50 was more than 100 µM. In test [4], the “Mean GI50” value was found to be 10.2. For the same compound, in test [5], the “HDAC Inhibition 1 μM” value turned out to be 0.6.

On to `CC(=O)N(O)C(=O)CCCCCCC(=O)N1CCN(CC(=O)Nc2nc3ccccc3s2)CC1` [Example 39, 8-{4-[2-(1,3-Benzothiazol-2-ylamino)-2-oxoethyl]piperazin-1-yl}-N-acetyl-N-hydroxy-8-oxo octanamide], for which, in test [1], the concentration for 50% growth inhibition (GI50) came out at 44 µM, the IC100 worked out at 48 µM and the LC50 was more than 100 µM. Besides, in test [2], the GI50 is 8 µM, the IC100 worked out at 57 µM and the LC50 turned out to be 98 µM. In test [3], it took 22 µM to inhibit growth by half (GI50), the IC100 is 52 µM and the LC50 turned out to be 78 µM. In addition, the “Mean GI50” value in test [4] is recorded as 24.7. Further, in test [5], the “HDAC Inhibition 1 μM” value is given as 81.4, the “HDAC Inhibition 10 μM” value was found to be 96.6 and the IC50 came out at 550 nM.
